In US20150057180A1, “Methods and Kits for Analyzing Biomarkers in a Signal Transduction Pathway” (BioScale, Inc., priority 2012, published 2015):
Entries after “also recorded” stand apart in the source; their conditions may differ.

Legend:
pERK1/2 [1] = experiment: AMMP pERK1/2 assay, MCF-7 cells; details: for EGF stimulated phosphorylation of ERK1/2: inhibitor (Afatinib 13 nM, Gefitinib 37 nM or Neratinib 92 nM) 2 hours prior to EGF 100 ng/ml 10 minutes
Description: (§1) AMMP Assay Design: These studies were designed using AMMP® (Acoustic Membrane Microparticle Assay) as run on the ViBE® workstation (BioScale). Assays were constructed so that strepavidin coated magnetic microparticles were loaded with analyte-specific biotinylated antibody and the solution phase sandwich partner antibody was conjugated with fluorescein. The complex of bead-analyte and fluorescien-labeled antibody was detected by the anti-fluorescein antibody-coated acoustic membrane of the VIBE.
(§2) Assay Set-Up: Cell lysates were thawed on ice then centrifuged at 14,000 RPM. Forty microliters of diluted cell lysates were pipetted in to the appropriate well of each plate with forty microliters of sample diluent. Also to each well, a total of forty microliters of a mixture of 1.5×10^5 magnetic beads and 200 ng/ml of fluorescein labeled detector antibody were added. Separate wells were loaded with beads and lysates alone to serve as negative controls. The plates were loaded on the VIBE workstation (BioScale Inc., Lexington, Mass.) and incubated for 4 hours prior to analysis.

pJNK [2] = experiment: AMMP pJNK assay, MCF-7 cells; format: cell-based, human; details: EGF 100 ng/ml for 10 minutes vs no treatment
Protocol: (§3) TPER was supplemented with phosphatase and protease inhibitors (ThermoFisher/Pierce) as described by the manufacturer. The cells were lysed by pipetting the TPER on the adhesion cell layer, or onto the cell pellet in the case of Jurkat cells. Cell lysates were collected into conical tubes, placed on ice, and vortexed every 5 minutes for a total of 20 minutes before aliquoting and freezing on dry ice. A standard BCA protein assay was used to determine total protein concentration of the lysates.
as §1
(§4) Assay Set-Up: Cell lysates were thawed on ice then centrifuged at 14,000 RPM. Forty microliters of diluted cell lysates were pipetted in to the appropriate well of each plate with forty microliters of sample diluent. Also to each well, a total of forty microliters of a mixture of 1.5×10^5 magnetic beads and 200 ng/ml of fluorescein labeled detector antibody were added. […]

phosphorylated p38 = experiment: AMMP phospho-p38 assay, A431 cell lysates (Example 5); format: cell-based, human; details: EGF-stimulated A431 cells compared to unstimulated A431 cells (FIG. 38)
Protocol: For the sample preparation from A431 cells, the following methods were used. Human epidermoid carcinoma cells A431 (American Type Culture Collection (ATCC), Manassas, Va.; ATCC Catalog No. CRL-1555) were grown to approximately 80% confluence in T75 flasks according to standard cell culture techniques. […] Negative control cells were incubated with serum free medium without stimulant, also for 10 minutes.
Additional scraping was required to release the cells from the plastic. The resulting cell suspension was incubated for approximately 15 minutes on ice with vortexing every five minutes for effective cell lysis. Phosphatase and protease inhibitors (HALT, Thermo Fisher (Pierce)) were included in the detergent cell treatment preparation. Cell lysates were aliquoted and snap frozen on dry ice, and then transferred to a −80° C. freezer until analysis. […]
Cell lysate samples were prepared for the assays by thawing them on ice then clarifying by centrifugation in a microcentrifuge at 14,000 RPM for 10 minutes. […] Negative controls containing the bead only with the samples (no fluoresceinated antibody) were run and the ViBE response was subtracted from the sample signal readings to determine the specific assay signal.

pp38 [3] = experiment: AMMP pp38 assay, A431 cells
Protocol: as §3, §1, §4

pJNK [4] = experiment: AMMP pJNK assay, A431 cells
Protocol: as §3, §1, §2

pHER3 [5] = experiment: AMMP pHER3 assay, A431 cells; details: for EGF stimulated phosphorylation of HER3: inhibitor (Afatinib 13 nM, Gefitinib 37 nM or Neratinib 92 nM) 2 hours prior to EGF 100 ng/ml 10 minutes
Description: as §1, §2

pMEK1 [6] = experiment: AMMP pMEK1 assay, A431 cells
Description: as §1, §2

pp38 [7] = experiment: AMMP pp38 assay, MCF-7 cells
Protocol: as §3, §1, §4

pHER3 [8] = experiment: AMMP pHER3 assay, MCF-7 cells
Protocol: as §3, §1, §2

pMEK1 [9] = experiment: AMMP pMEK1 assay, MCF-7 cells
Description: as §1, §2

pAKT1 [10] = experiment: AMMP pAKT1 assay, MCF-7 cells
Protocol: as §3, §1, §4

pERK1/2 [11] = experiment: AMMP pERK1/2 assay, A431 cells
Description: as §1, §2

pAKT1 [12] = experiment: AMMP pAKT1 assay, A431 cells; details: inhibitor (Neratinib 92 nM) 2 hours prior to EGF 100 ng/ml 10 minutes
Protocol: as §3, §1, §4

[13] = EGF 100 ng/ml for 10 minutes vs no treatment
[14] = inhibitor (Neratinib 92 nM) 2 hours prior to EGF 100 ng/ml 10 minutes
[15] = inhibitor (Afatinib 13 nM, Gefitinib 37 nM or Neratinib 92 nM) 2 hours prior to EGF 100 ng/ml 10 minutes, listed as neratinib

Q: COc1cc2ncnc(Nc3ccc(F)c(Cl)c3)c2cc1OCCCN1CCOCC1 [gefitinib, Gefitinib] was tested. Which “EGF stimulated phosphorylation of ERK1/2” value (pERK1/2 [1]) did it give?
A: Its value is “inhibited”.

Q: epidermal growth factor [EGF] was tested. Which “phosphorylation of JNK on EGF stimulation” value (pJNK [2]) did it give?
A: The value was “no change in JNK; also recorded: No phosphorylation of JNK”.

Q: And the “amount of phospho-p38” value (phosphorylated p38)?
A: Its value is “dramatic increase”.

Q: And the “phosphorylation of p38 on EGF stimulation” value (pp38 [3]; [13])?
A: The value was “led to phosphorylation”.

Q: And the “phosphorylation of JNK on EGF stimulation” value (pJNK [4]; [13])?
A: The value was “no change in JNK; also recorded: No phosphorylation of JNK”.

Q: What about the “phosphorylation of HER3 on EGF stimulation” value (pHER3 [5]; [13]) of the same molecule?
A: The value was “increased with EGF stimulation; also recorded: high even in non-treated A431 cells”.

Q: And the “phosphorylation of MEK1 on EGF stimulation” value (pMEK1 [6]; [13])?
A: Its value is “Strong phosphorylation of MEK1; also recorded: led to phosphorylation”.

Q: And the “phosphorylation of p38 on EGF stimulation” value (pp38 [7]; [13])?
A: The value was “moderate phosphorylation of p38”.

Q: What about the “phosphorylation of HER3 on EGF stimulation” value (pHER3 [8]; [13]) of the same molecule?
A: The value was “little phosphorylation was observed; also recorded: resulted in phosphorylation”.

Q: And the “phosphorylation of MEK1 on EGF stimulation” value (pMEK1 [9]; [13])?
A: Its value is “modest phosphorylation of MEK1; also recorded: resulted in phosphorylation”.

Q: And the “phosphorylation of AKT1 on EGF stimulation” value (pAKT1 [10]; [13])?
A: The value was “small amount of AKT1 phosphorylation”.

Q: And the “phosphorylation of ERK1/2 on EGF stimulation” value (pERK1/2 [11]; [13])?
A: The value was “predominated the signaling pathway; also recorded: easily detected; also recorded: led to phosphorylation”.

Q: And the “phosphorylation of ERK1/2 on EGF stimulation” value (pERK1/2 [1]; [13])?
A: Its value is “detected phosphorylation of ERK1/2; also recorded: detected to a lesser degree; also recorded: resulted in phosphorylation”.

Q: Which “EGF stimulated phosphorylation of p38” value (pp38 [3]; inhibitor (Afatinib 13 nM, Gefitinib 37 nM or Neratinib 92 nM) 2 hours prior to EGF 100 ng/ml 10 minutes) does the source give for CCOc1cc2ncc(C#N)c(Nc3ccc(OCc4ccccn4)c(Cl)c3)c2cc1NC(=O)/C=C/CN(C)C [Neratinib] here?
A: The value was “largely unaffected”.

Q: And the “EGF stimulated phosphorylation of JNK” value (pJNK [4]; [14])?
A: The value was “largely unaffected”.

Q: What about the “EGF stimulated phosphorylation of HER3” value (pHER3 [5]) of the same molecule?
A: Its value is “largely inhibit”.

Q: And the “EGF stimulated phosphorylation of HER3” value (pHER3 [5]; listed as neratinib)?
A: The value was “highly effective”.

Q: And the “EGF stimulated phosphorylation of MEK1” value (pMEK1 [6]; [15])?
A: Its value is “no such effect; also recorded: much less than expected”.

Q: And the “EGF stimulated phosphorylation of AKT1” value (pAKT1 [12])?
A: Its value is “largely unaffected”.

Q: And the “EGF stimulated phosphorylation of p38” value (pp38 [7]; [14])?
A: Its value is “slight loss in phosphorylation”.

Q: And the “EGF stimulated phosphorylation of HER3” value (pHER3 [8]; [14])?
A: Its value is “only partially inhibited”.

Q: What about the “EGF stimulated phosphorylation of MEK1” value (pMEK1 [9]; [14]) of the same molecule?
A: The value was “inhibitory effects; also recorded: partially inhibited”.

Q: And the “EGF stimulated phosphorylation of AKT1” value (pAKT1 [10]; [14])?
A: The value was “slight loss in phosphorylation”.

Q: What about the “EGF stimulated phosphorylation of ERK1/2” value (pERK1/2 [11]; [15]) of the same molecule?
A: Its value is “no such effect; also recorded: much less than expected”.

Q: What about the “EGF stimulated phosphorylation of ERK1/2” value (pERK1/2 [1]) of the same molecule?
A: Its value is “inhibitory effects”.
